Values after ≈ are worked out from the molar mass of the structure shown.
Test system: KB
Test: Cytotoxicity against human KB cells
Assay type: functional
Details: read-out: ED50 (the source's name)

| SMILES | EC50 [mg/L] |
| --- | --- |
| CC(=O)OC[C@]12[C@H](OC(=O)c3ccccc3)[C@@H](OC(C)=O)[C@@H]3[C@@H](OC(C)=O)[C@@]14O[C@@]3(C)COC(=O)c1cccnc1[C@H](C)[C@H](C)C(=O)O[C@@H]([C@H](OC(=O)c1ccc(=O)n(C)c1)[C@@H]2OC(C)=O)[C@@]4(C)O [EMARGINATINE B] | 0.4 (≈ 0.416 µM) |
| CC(=O)OC[C@]12[C@H](OC(C)=O)[C@H](OC(C)=O)[C@@H]3[C@@H](OC(C)=O)[C@@]14O[C@@]3(C)COC(=O)c1cccnc1[C@H](C)[C@H](C)C(=O)O[C@@H]([C@H](OC(=O)c1ccc(=O)n(C)c1)[C@@H]2OC(C)=O)[C@@]4(C)O [EMARGINATINE A] | 4 (≈ 4.45 µM) |
